Reference: patent US10793576B2, “Compound used as Bruton's tyrosine kinase inhibitor and preparation method and application thereof” (Chengdu Brilliant Pharmaceutical Co., LTD., priority 2017, dated 2020)
Where two headings read alike, the source gives them in different places.

How the values were obtained:
[1] = target: BTK kinase (Homo sapiens (Human), UniProt Q06187); test: In vitro assay for the inhibition of BTK kinase activity (Mobility-Shift Assay); assay type: biochemical
Description: Mobility-Shift Assay, which is microfluidic chip technology, applies the basic concept of capillary electrophoresis to microfluidic environments. The substrate used for the experiment is a polypeptide with a fluorescent label. Under the action of enzyme in the reaction system, the substrate is transformed into a product, and the charge the substrate carries also changes accordingly. The use of the charge difference between the substrate and the product involved in Mobility-Shift Assay achieves the separating of the two, and they are tested respectively. The test results are expressed by conversion rates.
(3) 100% DMSO was added to the positive control well and the negative control well, respectively;

[2] = system: DOHH2 cells; test: Cell proliferation inhibition in vitro, DOHH2 cells by CTG assay; assay type: cell-based; details: read-out: Inhibitions of cell activities IC50 (nM) DOHH2
Description: (§1) Test Example 2: Determination of the Inhibition of Cell Proliferation Inhibitory Activity in
(§2) vitro of compounds using different cell lines
(§3) 2: Preparation of the Compounds:
(§4) The compounds to be tested were diluted with DMSO to prepare a mother liquor at a final concentration of 10 mM for later use.
3.2 Test of DOHH2 Cells by CTG Assay
(§5) Logarithmic growth phase cells were collected, counted and resuspended in complete medium. The cell concentration was adjusted to a suitable concentration (determined according to the cell density optimization test results), and seeded to 96-well plate and 100 μl of the cell suspension was added to each well. The cells were incubated in an incubator at 37° C., 100% relative humidity and 5% C02 for 24 hours.
The compounds to be tested were diluted with the medium to the set corresponding action concentration, and the cells were added at 10 µl/well. The cells were incubated in an incubator set at 37° C., 100% relative humidity and 5% C02 for 72 hours.
The medium was aspirated and discarded, and 30 μl of test reagent was added. The plate was gentle shaken away from the light to lyse the cells.
(§6) As: OA of the sample (cell+test reagent+test compound)
(§7) Ac: OA of the negative control (cell+test reagent+DMSO)
(§8) Ab: OA of the positive control (medium+test reagent+DMSO)
(§9) IC50 curve fitting was performed using the software Graphpad Prism 5 or XLfit and IC50 values were calculated.

[3] = system: TMD8 cells; test: Cell proliferation inhibition in vitro, TMD8 cells by CCK-8 method; assay type: cell-based; details: 72 hours, read-out: Inhibitions of cell activities IC50 (nM) TMD8
Description: as §1, §2, §3, §4
(§10) 3.1. Test of TMD8 and OCI-ly10 Cells by CCK-8 Method
as §5
(§11) The compounds to be tested were diluted with the medium to the set corresponding action concentration, and the cells were added at 25 µl/well. The cells were incubated in an incubator at 37° C., 100% relative humidity and 5% C02 for 72 hours.
(§12) The medium was aspirated and discarded, and a complete medium containing 10% of the test reagent was added and the obtained system was incubated in a 37° C. incubator for 1 hour-4 hours.
as §6, §7, §8, §9

[4] = system: OCI-LY10 cells; test: Cell proliferation inhibition in vitro, OCI-ly10 cells by CCK-8 method; assay type: cell-based; details: 72 hours, read-out: Inhibitions of cell activities IC50 (nM) OCI-LY10
Description: as §1, §2, §3, §4, §10, §5, §11, §12, §6, §7, §8, §9

Sequence of BTK kinase (Q06187 whole entry): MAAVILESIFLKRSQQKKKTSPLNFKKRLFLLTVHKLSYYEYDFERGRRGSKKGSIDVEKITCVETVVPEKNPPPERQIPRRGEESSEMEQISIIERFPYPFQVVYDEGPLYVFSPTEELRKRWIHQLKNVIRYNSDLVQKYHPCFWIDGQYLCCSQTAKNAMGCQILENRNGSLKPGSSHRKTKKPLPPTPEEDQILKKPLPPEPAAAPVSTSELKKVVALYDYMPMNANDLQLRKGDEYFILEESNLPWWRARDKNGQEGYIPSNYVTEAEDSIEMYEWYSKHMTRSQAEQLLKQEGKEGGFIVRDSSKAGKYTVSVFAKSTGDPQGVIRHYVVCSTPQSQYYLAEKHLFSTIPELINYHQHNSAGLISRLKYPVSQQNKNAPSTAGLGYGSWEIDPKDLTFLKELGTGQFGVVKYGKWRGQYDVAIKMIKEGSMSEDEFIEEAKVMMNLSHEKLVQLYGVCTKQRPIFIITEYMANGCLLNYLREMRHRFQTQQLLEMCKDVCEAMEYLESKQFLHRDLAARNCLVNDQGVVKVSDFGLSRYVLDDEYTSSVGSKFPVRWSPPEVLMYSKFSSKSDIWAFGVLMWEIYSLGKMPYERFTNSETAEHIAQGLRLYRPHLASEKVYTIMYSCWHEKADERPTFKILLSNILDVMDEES

Row | Structure (SMILES) | IC50 [1] | IC50 ([2]; Homo sapiens, DOHH-2, 72 hours) | IC50 ([3]; Homo sapiens) | IC50 ([4]; Homo sapiens) | IC50 ([2]; 72 hours) | IC50 [3] | IC50 [4]
1 | C=CC(=O)N1CC2CCCC2C1c1nc(-c2ccc(C(=O)Nc3cc(Cl)ccn3)cc2)c2c(N)nccn12 (stereo not drawn) [Example 68] | 5.3 nM | 172 nM | 3.2 nM | 4.4 nM |  |  | 
2 | CC#CC(=O)N1C2C[C@@H](C1c1nc(-c3ccc(Oc4ccccc4)cc3)c3c(N)nccn13)N(C(C)C)C2 (stereo partly drawn) [Example 111] | 30 nM | 672 nM | 4.3 nM | 2.1 nM |  |  | 
3 | C=CC(=O)N1CC2(CC2)C[C@H]1c1nc(-c2ccc(C(C)(O)c3ccccc3)cc2)c2c(N)nccn12 (stereo partly drawn) [Example 74, 1-((6S)-6-(8-amino-1-(4-(1-hydroxy-1-phenylethyl)phenyl)imidazo[1,5-a]pyrazin-3-yl)-5-azaspiro[2.4]heptan-5-yl)prop-2-en-1-one] | 24 nM | 72 nM | 9.7 nM | 3.5 nM |  |  | 
4 | C=CC(=O)N1CC2(CC2)C[C@H]1c1nc(-c2cccc(C(=O)Nc3ccccn3)c2)c2c(N)nccn12 [Example 124, (S)-3-(3-(5-acryloyl-5-azaspiro[2.4]heptan-6-yl)-8-aminoimidazo[1,5-a]pyrazin-1-yl)-N-(pyridin-2-yl)benzamide] | 18 nM | 629 nM | 11.8 nM | 1.5 nM |  |  | 
5 | CC#CC(=O)N1C2CC[C@@H](C2)C1c1nc(-c2ccc(C(C)(O)c3ccccc3)cc2)c2c(N)nccn12 (stereo partly drawn) [Example 80] | 24 nM | 618 nM | 4.3 nM | 0.67 nM |  |  | 
6 | C=CC(=O)N1CC2CCCC2C1c1nc(-c2ccc(C(C)(O)c3ccccc3)cc2)c2c(N)nccn12 (stereo not drawn) [Example 77] | 8.5 nM | 212 nM | 2.5 nM | 0.26 nM |  |  | 
7 | C=CC(=O)N1[C@H]2CC[C@@H]1[C@@H](c1nc(-c3ccc(C(=O)Nc4ccccn4)cc3)c3c(N)nccn13)C2 [Example 118, 4-(3-((1R,2S,4S)-7-acryloyl-7-azabicyclo[2.2.1]heptan-2-yl)-8-aminoimidazo[1,5-a]pyrazin-1-yl)-N-(pyridin-2-yl)benzamide] | 5.6 nM | 712 nM | 3.9 nM | 4.1 nM |  |  | 
8 | C=CC(=O)N1C2CN[C@@H](C2)C1c1nc(-c2ccc(C(=O)Nc3cc(C(F)(F)F)ccn3)cc2)c2c(N)nccn12 (stereo partly drawn) [Example 52] | 2.4 nM | 174 nM | 6.4 nM | 0.35 nM |  |  | 
9 | C=CC(=O)N1C2C[C@@H](C1c1nc(-c3ccc(C(C)(O)c4ccccc4)cc3)c3c(N)nccn13)N(C(C)C)C2 (stereo partly drawn) [Example 89] | 14 nM | 96 nM | 2.4 nM | 0.23 nM |  |  | 
10 | C=CC(=O)N1C(c2nc(-c3ccc(C(=O)Nc4ccccn4)cc3)c3c(N)nccn23)[C@@H]2C[C@H]1CN2C(=O)OC(C)(C)C (stereo partly drawn) [Example 126, (1 S,4S)-tert-butyl-5-acryloyl-6-(8-amino-1-(4-(pyridin-2-carbamoyl)phenyl)imidazo[1,5-a]pyrazin-3-yl)-2,5-diazabicyclo[2.2.1]heptane-2-carboxylate] | 4.4 nM |  |  |  | 206 nM | 1.6 nM | 0.8 nM
11 | C=CC(=O)N1C2CC[C@@H](C2)C1c1nc(-c2ccc(Oc3ccccc3)cc2)c2c(N)nccn12 (stereo partly drawn) [Example 98] | 24 nM | > 1000 nM | 6.8 nM | 0.33 nM |  |  | 
12 | CC#CC(=O)N1[C@H]2CC[C@@H]1[C@@H](c1nc(-c3ccc(C(=O)Nc4ccccn4)cc3)c3c(N)nccn13)C2 [Example 119, 4-(8-amino-3-((1R,2S,4S)-7-(but-2-ynoyl)-7-azabicyclo[2.2.1]heptan-2-yl)imidazo[1,5-a]pyrazin-1-yl)-N-(pyridin-2-yl)benzamide] | 43 nM | > 1000 nM | 2.4 nM | 0.42 nM |  |  | 
13 | C=CC(=O)N1C(c2nc(-c3ccc(C(=O)Nc4cc(Cl)ccn4)cc3)c3c(N)nccn23)CC2CC21 (stereo not drawn) [Example 71] | 12 nM | 84 nM | 8.4 nM | 1.4 nM |  |  | 
14 | C=CC(=O)N1CC2CC1(c1nc(-c3ccc(C(=O)Nc4ccccn4)cc3)c3c(N)nccn13)CO2 (stereo not drawn) [Example 9] | 2.8 nM | 74.3 nM | 0.2 nM | 0.13 nM |  |  | 
15 | C=CC(=O)N1CC2(CC2)C[C@H]1c1nc(-c2ccc(Oc3ccccc3)cc2)c2c(N)nccn12 [Example 93, (S)-1-(6-(8-amino-1-(4-phenoxyphenyl)imidazo[1,5-a]pyrazin-3-yl)-5-azaspiro[2.4]heptan-5-yl)prop-2-en-1-one] | 3.6 nM | 318 nM | 0.65 nM | 0.53 nM |  |  | 
